24 compounds from US11578087B2, “Oxaborole esters and uses thereof” (priority 2016, dated 2023) can be followed below.

Experiment [1] has as its system T. cruzi amastigote (Td Tomato-modified) in Vero cells. Briefly: In vitro IC50 measurement of T. cruzi amastigote killing using Td Tomato-modified T. cruzi. It is filed as cell-based. As to conditions: Trypanosoma cruzi, 72 h, fluorescence, read-out: IC50: I Org. amastigote Growth T. cruzi 3 d. The protocol:
Example 254. In Vitro IC50 Measurement of T. cruzi Amastigote Killing Using Td Tomato-Modified T. cruzi
The T. cruzi parasites used in this assay were genetically modified to express Td Tomato fluorescent protein. Vero cells (African green monkey kidney epithelial cells) were harvested from continuous cultures using trypsin and added to the inner 60 wells of 96-well Greiner Bio One plates (plate catalog #655090) at 200 ul/well of […]. Cells were allowed to adhere for 1 h before infection with T. cruzi. T. cruzi for infection were harvested from previously-infected Vero cells, washed, pelleted and resuspended at 5×10^6/mL. 50 uL of parasites were added to each well containing Vero cells. Compounds were prepared from 5 mM stock concentrations in DMSO to final concentrations in wells ranging from 5 uM to 5 nM. Wells were provided for negative controls, lacking compounds. Plates were placed into a 37° C. incubator for 20 min, then a “Day 0” reading was taken on a Synergy H4 plate reader to record initial fluorescence levels, at 544 (excitation) and 612 nm (emission). 96-well plates were placed in Tupperware containers with wet paper towels and incubated at 37° C. incubator for 72 h. After 72 h plates were reread (Day 3 reading) and data analyzed using Excel and/or Graphpad software. Day 0 fluorescence was subtracted from Day 3 to remove input parasite fluorescence. Growth curves are generated and 50% and 90% inhibitory concentrations are determined by nonlinear regression analysis.

The subject of experiment [2] is IL3000 T. congolense (drug sensitive) strain. Briefly: In vitro Alamar Blue 72 h drug sensitivity assay for T. congolense. Type of experiment: cell-based, Trypanosoma congolense. To be noted: Trypanosoma congolense, 72 h, bloodstream form, 69 h + 3 h Resazurin, 34° C., read-out: IC50: I Org. Growth T. congolense 3 d. The protocol: Example 252. In Vitro Alamar Blue 72 h Drug Sensitivity Assay for T. congolense
Compounds were tested in vitro for chemotherapeutic potency against the IL3000 T. congolense (drug sensitive) strain, using the Alamar Blue assay with several modifications. Test compounds were prepared as 10 mg/mL DMSO stocks for each assay run. Compounds were assayed in at least three separate, independent test runs and an 11-point dilution curve was used to determine the IC50 values. Bloodstream form trypanosomes were supported in HMI media containing 20% bovine serum and were incubated with test compounds for 69 h at 34° C. in a humidified atmosphere containing 5% CO2. Thereafter, 10 μL of Resazurin dye (12.5 mg in 100 mL of phosphate buffered saline, Sigma-Aldrich, Buchs, Switzerland) were added for an additional 3 h. Plates were then read using a fluorescent plate reader (Spectramax, Gemini XS, Bucher Biotec, Basel, Switzerland) using an excitation wavelength of 536 nm and an emission wavelength of 588 nm. Data points were averaged to generate sigmoidal dose-response curves and IC50 values were determined using Softmax Pro 5.2 software.

Take `Cc1c(C(=O)N[C@H](C(=O)OCc2cccc(CN3CCNCC3)c2)C(C)C)ccc2c1B(O)OC2` [Example 6-117, 3-(Piperazin-1-ylmethyl)benzyl (1-hydroxy-7-methyl-1,3-dihydrobenzo[c][1,2]oxaborole-6-carbonyl)-L-valinate]: the IC50 in experiment [1] is at least 1000 nM; in experiment [2], 10 to 5000 nM.
The corresponding values for `Cc1c(C(=O)N[C@H](C(=O)OCC(F)(F)F)C(C)C)ccc2c1B(O)OC2` [Example 6-151, 2,2,2-Trifluoroethyl (1-hydroxy-7-methyl-1,3-dihydrobenzo[c][1,2]oxaborole-6-carbonyl)-L-valinate] are at most 20 nM and under 0.5 nM.
On to `CSCC[C@H](NC(=O)c1ccc2c(c1)B(O)OC2)C(=O)OCc1ccccc1` [Example 6-008, Benzyl (1-hydroxy-1,3-dihydrobenzo[c][1,2]oxaborole-6-carbonyl)-L-methioninate], for which the IC50 in experiment [1] was 21 to 999 nM; in experiment [2] it was 0.51 to 9.99 nM.
Consider `Cc1c(C(=O)N[C@H](C(=O)OCCN2CCOCC2C)C(C)C)ccc2c1B(O)OC2` (stereo partly drawn) [Example 6-219, 2-(3-methylmorpholino)ethyl (1-hydroxy-7-methyl-1,3-dihydrobenzo[c][1,2]oxaborole-6-carbonyl)-L-valinate], for which the results for the half-inhibitory concentration (IC50) in experiment [1] and in experiment [2] were 21 to 999 nM and under 0.5 nM, respectively.
Consider `Cc1c(C(=O)N[C@H](C(=O)OCc2nccs2)C(C)C)ccc2c1B(O)OC2` [Example 6-124, Thiazol-2-ylmethyl (1-hydroxy-7-methyl-1,3-dihydrobenzo[c][1,2]oxaborole-6-carbonyl)-L-valinate], for which the IC50 in experiment [1] was 21 to 999 nM; in experiment [2], under 0.5 nM.
Regarding `CNCc1cccc(COC(=O)[C@@H](NC(=O)c2ccc3c(c2C)B(O)OC3)C(C)C)c1` [Example 6-122, 3-((Methylamino)methyl)benzyl (1-hydroxy-7-methyl-1,3-dihydrobenzo[c][1,2]oxaborole-6-carbonyl)-L-valinate], the IC50 in experiment [1] was at least 1000 nM; in experiment [2] it was 10 to 5000 nM.
The corresponding values for `Cc1c(C(=O)N[C@H](C(=O)OCc2ccc(S(=O)(=O)C(C)C)cc2)C(C)C)ccc2c1B(O)OC2` [Example 6-092, 4-(Isopropylsulfonyl)benzyl (1-hydroxy-7-methyl-1,3-dihydrobenzo[c][1,2]oxaborole-6-carbonyl)-L-valinate] are 21 to 999 nM and under 0.5 nM.
In the case of `Cc1c(C(=O)N[C@H](C(=O)OCc2ccc(F)cc2)[C@@H](C)O)ccc2c1B(O)OC2` [Example 6-074, 4-Fluorobenzyl (1-hydroxy-7-methyl-1,3-dihydrobenzo[c][1,2]oxaborole-6-carbonyl)-L-threoninate], the 50% inhibitory concentration (IC50) in experiment [1] was 21 to 999 nM; in experiment [2] it was under 0.5 nM.
Consider `Cc1c(C(=O)N[C@H](C(=O)OCc2ccc3ccccc3n2)C(C)C)ccc2c1B(O)OC2` [Example 6-125, Quinolin-2-ylmethyl (1-hydroxy-7-methyl-1,3-dihydrobenzo[c][1,2]oxaborole-6-carbonyl)-L-valinate], for which the IC50 was 21 to 999 nM in experiment [1] and under 0.5 nM in experiment [2].
For `Cc1c(C(=O)N[C@H](C(=O)OCCCN2CCOCC2)C(C)C)ccc2c1B(O)OC2` [Example 6-208, 3-morpholinopropyl (1-hydroxy-7-methyl-1,3-dihydrobenzo[c][1,2]oxaborole-6-carbonyl)-L-valinate], the IC50 fell in the range of 21 to 999 nM in experiment [1] and 0.51 to 9.99 nM in experiment [2].
For `COCN(COC)S(=O)(=O)c1ccc(COC(=O)[C@@H](NC(=O)c2ccc3c(c2C)B(O)OC3)C(C)C)cc1` [Example 6-109, 4-(N,N-bis(methoxymethyl)sulfamoyl)benzyl (1-hydroxy-7-methyl-1,3-dihydrobenzo[c][1,2]oxaborole-6-carbonyl)-L-valinate] the same measures were 21 to 999 nM and 0.51 to 9.99 nM.
Consider `CC(C)[C@H](NC(=O)c1ccc2c(c1F)B(O)OC2)C(=O)OCc1ccccc1` [Example 6-035, Benzyl (7-fluoro-1-hydroxy-1,3-dihydrobenzo[c][1,2]oxaborole-6-carbonyl)-L-valinate], for which the IC50 in experiment [1] was at least 1000 nM; in experiment [2] it was 10 to 5000 nM.
Regarding `Cc1c(C(=O)N[C@H](C(=O)OC2CCC2)C(C)C)ccc2c1B(O)OC2` [Example 6-136, Cyclobutyl (1-hydroxy-7-methyl-1,3-dihydrobenzo[c][1,2]oxaborole-6-carbonyl)-L-valinate], the IC50 is at most 20 nM in experiment [1] and under 0.5 nM in experiment [2].
For `Cc1c(C(=O)N[C@H](C(=O)OCCN2CCCC2=O)C(C)C)ccc2c1B(O)OC2` [Example 6-212, 2-(2-oxopyrrolidin-1-yl)ethyl (1-hydroxy-7-methyl-1,3-dihydrobenzo[c][1,2]oxaborole-6-carbonyl)-L-valinate] the same measures were 21 to 999 nM and 10 to 5000 nM.
With `Cc1c(C(=O)N[C@H](C(=O)OCc2cccc(N3CCN(C)CC3)c2)C(C)C)ccc2c1B(O)OC2` [Example 6-072, 3-(4-Methylpiperazin-1-yl)benzyl (1-hydroxy-7-methyl-1,3-dihydrobenzo[c][1,2]oxaborole-6-carbonyl)-L-valinate], the IC50 in experiment [1] was at most 20 nM; in experiment [2], under 0.5 nM.
The corresponding values for `Cc1c(C(=O)N[C@H](C(=O)OCc2cc(F)c(F)c(F)c2)C(C)(C)O)ccc2c1B(O)OC2` [Example 6-101, 3,4,5-Trifluorobenzyl(S)-3-hydroxy-2-(1-hydroxy-7-methyl-1,3-dihydrobenzo[c][1,2]oxaborole-6-carboxamido)-3-methylbutanoate] are at most 20 nM and under 0.5 nM.
Turning to `Cc1c(C(=O)N[C@H](C(=O)OCc2ccc(Cl)cc2)C(C)C)ccc2c1B(O)OC2` [Example 6-040, 4-Chlorobenzyl (1-hydroxy-7-methyl-1,3-dihydrobenzo[c][1,2]oxaborole-6-carbonyl)-L-valinate], the values for the IC50 in experiment [1] and in experiment [2] were at most 20 nM and under 0.5 nM, respectively.
The corresponding values for `Cc1c(C(=O)N[C@H](C(=O)OCc2ccc(F)cc2)C(C)(C)O)ccc2c1B(O)OC2` [Example 6-169, 4-Fluorobenzyl (S)-3-hydroxy-2-(1-hydroxy-7-methyl-1,3-dihydrobenzo[c][1,2]oxaborole-6-carboxamido)-3-methylbutanoate] are at most 20 nM and under 0.5 nM.
Take `Cc1c(C(=O)N[C@H](C(=O)OCc2cccc(N3CCNCC3)c2)C(C)C)ccc2c1B(O)OC2` [Example 6-126, 3-(Piperazin-1-yl)benzyl (1-hydroxy-7-methyl-1,3-dihydrobenzo[c][1,2]oxaborole-6-carbonyl)-L-valinate]: the values for the IC50 in experiment [1] and in experiment [2] were at least 1000 nM and 0.51 to 9.99 nM, respectively.
With `Cc1c(C(=O)N[C@H](C(=O)OCC2CCOCC2)C(C)C)ccc2c1B(O)OC2` [Example 6-172, (tetrahydro-2H-pyran-4-yl)methyl (1-hydroxy-7-methyl-1,3-dihydrobenzo[c][1,2]oxaborole-6-carbonyl)-L-valinate], the IC50 in experiment [1] was at most 20 nM; in experiment [2] it was under 0.5 nM.
`Cc1c(C(=O)N[C@H](C(=O)OCc2ccc(F)c(F)c2)C(C)(C)O)ccc2c1B(O)OC2` [Example 6-098, 3,4-Difluorobenzyl (S)-3-hydroxy-2-(1-hydroxy-7-methyl-1,3-dihydrobenzo[c][1,2]oxaborole-6-carboxamido)-3-methylbutanoate]: the IC50 is at most 20 nM in experiment [1] and under 0.5 nM in experiment [2].
For `Cc1c(C(=O)N[C@H](C(=O)OCC2CCCCC2)C(C)C)ccc2c1B(O)OC2` [Example 6-119, Cyclohexylmethyl (1-hydroxy-7-methyl-1,3-dihydrobenzo[c][1,2]oxaborole-6-carbonyl)-L-valinate] the same measures were at most 20 nM and under 0.5 nM.
For `Cc1c(C(=O)N[C@H](C(=O)OCC2(O)CCCCC2)C(C)C)ccc2c1B(O)OC2` [Example 6-229, (1-hydroxycyclohexyl)methyl (1-hydroxy-7-methyl-1,3-dihydrobenzo[c][1,2]oxaborole-6-carbonyl)-L-valinate] the same measures were at most 20 nM and under 0.5 nM.
For `Cc1c(C(=O)NC2(C(=O)OCC3CCCC3)COC2)ccc2c1B(O)OC2` [Example 6-224, Cyclopentylmethyl 3-(1-hydroxy-7-methyl-1,3-dihydrobenzo[c][1,2]oxaborole-6-carboxamido)oxetane-3-carboxylate] the same measures were at most 20 nM and 0.51 to 9.99 nM.
